# Experimental data as given in patent publication US9981963B2, “3-(1H-pyrazol-4-yl)-1H-pyrrolo[2,3-c]pyridine derivatives as NIK inhibitors” (Janssen Pharmaceutica NV, priority 2013, dated 2018).
# Experiments:
# [1] = system: LP-1 cells; experiment: Biological Assay C: antiproliferative activity on LP-1 cells (CellTiter-Glo); assay type: cell-based; details: Homo sapiens, 72 hr of treatment, averaged values
# Procedure: (§1) Determination of Antiproliferative Activity on LP-1, L-363 and JJN-3 Cells
# (§2) All compounds tested were dissolved in DMSO and further dilutions were made in culture medium. Final DMSO concentration was 0.3% (v/v) in cell proliferation assays. Viability was assessed using CellTiter-Glo cell viability assay kit (Promega). The human LP-1, L-363 and JJN-3 cells (DSMZ) were cultured in RPMI 1640 medium supplemented with 2 mM L-glutamine, and 10% fetal calf serum (PAA). Cells were routinely kept as suspension cells at 37° C. in a humidified 5% CO2 atmosphere. Cells were passaged at a seeding density of 0.2×10^6/ml twice a week. Cells were seeded in black tissue culture treated 96-well plates (Perkin Elmer). Densities used for plating ranged from 2,000 to 6,000 cells per well in a total volume of 75 μl medium. After twenty four hours, drugs and/or solvents were added (25 μl) to a final volume of 100 μl. Following 72 hr of treatment plates were removed from the incubator and allowed to equilibrate to room temperature for approx 10 min. 100 μl CellTiter-Glo reagent was added to each well that was then covered (Perkin Elmer Topseal) and shaken on plate shaker for 10 min. Luminescence was measured on a HTS Topcount (Perkin Elmer). Within an experiment, the results for each treatment were the mean of 2 replicate wells. For initial screening purposes, compounds were tested using a 9 point dilution curve (serial 1:3 dilutions). For each experiment, controls (containing no drug) and a blank incubation (containing cells read at the time of compound addition) were run in parallel. The blank value was subtracted from all control and sample values. For each sample, the mean value for cell growth (in relative light units) was expressed as a percentage of the mean value for cell growth of the control.
# [2] = system: L-363 cells; experiment: Biological Assay C: antiproliferative activity on L-363 cells (CellTiter-Glo); assay type: cell-based; details: Homo sapiens, 72 hr of treatment, averaged values
# Procedure: as §1, §2
# [3] = system: P-IKKα levels in L363 cells; experiment: Biological Assay B: effect of compounds on P-IKKα levels in L363 cells; assay type: cell-based; details: Homo sapiens, L-363; L363 cells with BAFF, 2 hr treatment; averaged values; read-out: IKKα Cellular IC50
# Procedure: Effect of Compounds on P-IKKα Levels in L363 Cells
# All compounds tested were dissolved in DMSO and further dilutions were made in culture medium. Final DMSO concentration was 1% (v/v) in cell assays. The human L363 cells (ATCC) were cultured in RPMI 1640 medium supplemented with GlutaMax and 10% fetal calf serum (PAA). Cells were routinely maintained at densities of 0.2×10^6 cells per ml-1×10^6 cells per ml at 37° C. in a humidified 5% CO2 atmosphere. Cells were passaged twice a week splitting back to obtain the low density. Cells were seeded in 96 well plates (Nunc 167008) at 2×10^6 per ml media in a volume of 75 μl per well plus 25 μl 1 μg/ml recombinant human B-cell activating factor (BAFF/BLyS/TNFSF13B). Seeded cells were incubated at 37° C. in a humidified 5% CO2 atmosphere for 24 hr. Drugs and/or solvents were added (20 μl) to a final volume of 120 μl. Following 2 hr treatment plates were removed from the incubator and cell lysis was achieved by the addition of 30 μl 5× lysis buffer followed by shaking on a plate shaker at 4° C. for 10 min. At the end of this incubation lysed cells were centrifuged at 800×g for 20 min at 4° C. and the lysate was assessed for P-IKKα levels by sandwich immuno-assay carried out in anti-rabbit antibody coated Mesoscale plates. Within an experiment, the results for each treatment were the mean of 2 replicate wells. For initial screening purposes, compounds were tested using an 8 point dilution curve (serial 1:3 dilutions). For each experiment, controls (containing MG132 and BAFF but no test drug) and a blank incubation (containing MG132 and BAFF and 10 μM ADS125117, a test concentration known to give full inhibition) were run in parallel. The blank incubation value was subtracted from all control and sample values. To determine the IC50 a sigmoidal curve was fitted to the plot of % inhibition of control P-IKKα levels versus Log10 compound concentration.
# [4] = biological target: T1, Recombinant Human NF-kappaB-inducing Kinase (NIK/MAP3K14) (Homo sapiens (Human), UniProt Q99558); experiment: Biological Assay A2: inhibition of auto-phosphorylation of recombinant human NIK/MAP3K14 (AlphaScreen); assay type: biochemical; details: 25 microM ATP, 0.2 nM GST-tagged NIK/MAP3K14, 1 h at 25° C., averaged values, read-out: Alpha-Screen IC50
# T1 sequence (Q99558 whole entry): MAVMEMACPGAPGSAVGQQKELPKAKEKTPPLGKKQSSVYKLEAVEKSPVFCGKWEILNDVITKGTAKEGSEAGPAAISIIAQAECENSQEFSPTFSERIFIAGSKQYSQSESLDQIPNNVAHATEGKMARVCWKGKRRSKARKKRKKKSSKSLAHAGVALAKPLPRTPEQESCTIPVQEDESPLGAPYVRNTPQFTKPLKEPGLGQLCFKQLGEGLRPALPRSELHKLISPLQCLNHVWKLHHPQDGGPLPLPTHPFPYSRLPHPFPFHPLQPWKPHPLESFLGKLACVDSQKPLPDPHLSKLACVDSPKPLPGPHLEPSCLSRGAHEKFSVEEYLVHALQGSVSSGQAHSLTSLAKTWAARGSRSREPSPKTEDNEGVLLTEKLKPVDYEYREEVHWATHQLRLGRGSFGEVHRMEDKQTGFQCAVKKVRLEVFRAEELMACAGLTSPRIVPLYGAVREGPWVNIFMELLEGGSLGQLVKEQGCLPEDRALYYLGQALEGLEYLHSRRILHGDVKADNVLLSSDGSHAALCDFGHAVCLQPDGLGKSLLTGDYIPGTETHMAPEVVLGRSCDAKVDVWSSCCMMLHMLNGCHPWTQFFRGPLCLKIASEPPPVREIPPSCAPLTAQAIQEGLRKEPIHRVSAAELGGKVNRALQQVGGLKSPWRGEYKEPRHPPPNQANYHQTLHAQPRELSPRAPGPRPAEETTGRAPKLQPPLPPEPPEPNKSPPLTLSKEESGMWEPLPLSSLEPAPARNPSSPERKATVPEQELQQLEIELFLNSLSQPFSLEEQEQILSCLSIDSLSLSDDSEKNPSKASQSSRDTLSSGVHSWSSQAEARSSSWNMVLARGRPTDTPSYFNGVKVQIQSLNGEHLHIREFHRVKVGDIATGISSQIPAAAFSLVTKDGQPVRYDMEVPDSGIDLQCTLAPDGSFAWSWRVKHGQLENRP
# Procedure: Inhibition of Auto-phosphorylation of Recombinant Human NF-kappaB-inducing Kinase (NIK/MAP3K14) Activity (AlphaScreen®)
# NIK/MAP3K14 auto-phosphorylation activity was measured using the AlphaScreen® (αscreen) format (Perkin Elmer). All compounds tested were dissolved in dimethyl sulfoxide (DMSO) and further dilutions were made in assay buffer. Final DMSO concentration was 1% (v/v) in assays. Assay buffer was 50 mM Tris pH 7.5 containing 1 mM EGTA (ethylene glycol tetraacetic acid), 1 mM DTT (dithiothreitol), 0.1 mM Na3VO4, 5 mM MgCl2, 0.01% Tween® 20. Assays were carried out in 384 well Alphaplates (Perkin Elmer). Incubations consisted of compound, 25 microM Adenosine-5′-triphosphate (ATP), and 0.2 nM NIK/MAP3K14. Incubations were initiated by addition of GST-tagged NIK/MAP3K14 enzyme, carried out for 1 h at 25° C. and terminated by addition of stop buffer containing anti-phospho-IKK Ser176/180 antibody. Protein A Acceptor and Glutathione-Donor beads were added before reading using an EnVision® Multilabel Plate Reader (Perkin Elmer). Signal obtained in the wells containing blank samples was subtracted from all other wells and IC50's were determined by fitting a sigmoidal curve to % inhibition of control versus Log10 compound concentration.
# [5] = system: JJN-3 cells; experiment: Biological Assay C: antiproliferative activity on JJN-3 cells (CellTiter-Glo); assay type: cell-based; details: Homo sapiens, 72 hr of treatment, averaged values
# Procedure: as §1, §2
# [6] = biological target: T1, Recombinant Human NF-kappaB-inducing Kinase (NIK/MAP3K14); experiment: Biological Assay A: inhibition of recombinant human NIK/MAP3K14 activity (MSD, MBP substrate); details: 25 μM ATP, 10 nM NIK/MAP3K14, 1 h at 25° C.; averaged over all measurements on all batches; read-out: Biochemical (MSD MBP) IC50
# Procedure: Inhibition of Recombinant Human NF-kappaB-inducing Kinase (NIK/MAP3K14) Activity
# Assay buffer was 50 mM Tris pH 7.5 containing 1 mM EGTA (ethylene glycol tetraacetic acid), 1 mM DTT (dithiothreitol), 0.1 mM Na3VO4, 5 mM MgCl2, 0.01% Tween® 20. Assays were carried out in 384 well Mesoscale high binding plates which had been coated with myelin basic protein (MBP) and blocked with bovine serum albumin to prevent non-specific protein binding. All compounds tested were dissolved in dimethyl sulfoxide (DMSO) and further dilutions were made in assay buffer. Final DMSO concentration was 1% (v/v) in assays. Incubations consisted of compound (1% DMSO in control and blank wells), 25 μM Adenosine-5′-triphosphate (ATP), and 10 nM NIK/MAP3K14 substituting enzyme with buffer in the blank wells. Incubations were carried out for 1 h at 25° C. and were followed by washing and sequential incubation with rabbit anti-phospho-MBP and anti-rabbit Ig Sulfotag antibody before reading bound Sulfotag on a Mesoscale Discovery. Signal obtained in the wells containing blank samples was subtracted from all other wells and IC50's were determined by fitting a sigmoidal curve to % inhibition of control versus Log10 compound concentration.
Compound,EC50 [1] [nM],EC50 [2] [nM],IC50 [3] [nM],IC50 [4] [nM],EC50 [5] [nM],IC50 [6] [nM]
CCn1cc(-c2cn[nH]c2)c2cc(C#CC3(O)CCCC3)ncc21 [Compound 10],5070,3180,113,23,1210,9
OCCn1cc(-c2cn[nH]c2)c2cc(C#CC3(O)CCCC3)ncc21 [Compound 13],> 30000,11000,242,17,23800,14
Cn1cc(-c2cn[nH]c2)c2cc(C#CC(C)(C)O)ncc21 [Compound 4],4720,1030,210,11,1150,28
CCn1cc(-c2c[nH]nc2C)c2cc(C#CC(C)(C)O)ncc21 [Compound 30],8230,2410,149,23,1690,29
CC(C)n1cc(-c2cn[nH]c2)c2cc(C#CC(C)(C)O)ncc21 [Compound 11],916,283,20,21,258,6
CCC(CC)n1cc(-c2cn[nH]c2)c2cc(C#CC(C)(C)O)ncc21 [Compound 24],647,519,191,65,744,48
CCn1cc(-c2c[nH]nc2N)c2cc(C#CC(C)(C)O)ncc21 [Compound 3],7240,4040,173,28,2370,58
CC(C)(O)C#Cc1cc2c(-c3cn[nH]c3)cn(Cc3ccccc3)c2cn1 [Compound 22],5230,5530,1770,232,6080,224
CC(C)(O)C#Cc1cc2c(-c3cn[nH]c3)cn(CCCO)c2cn1 [Compound 5],18800,791,71,14,1200,16
CC(C)(O)C#Cc1cc2c(-c3cn[nH]c3)cn(CC(C)(C)O)c2cn1 [Compound 14],12100,1330,132,108,1400,18
CN1CCC(n2cc(-c3cn[nH]c3)c3cc(C#CC(C)(C)O)ncc32)CC1 [Compound 19],11600,570,602,98,704,65
CC(C)(O)C#Cc1cc2c(-c3cn[nH]c3)cn(CCO)c2cn1 [Compound 12],8500,2450,185,22,1500,47
COCCn1cc(-c2cn[nH]c2)c2cc(C#CC(C)(C)O)ncc21 [Compound 16],20400,3140,523,99,4050,92
CC(C)(O)C#Cc1cc2c(-c3cn[nH]c3)c[nH]c2cn1 [Compound 1],> 30000,6980,736,53,3340,60
CN1CC(n2cc(-c3cn[nH]c3)c3cc(C#CC(C)(C)O)ncc32)C1 [Compound 34],> 30000,2200,377,171,3660,76
COCCCn1cc(-c2cn[nH]c2)c2cc(C#CC(C)(C)O)ncc21 [Compound 18],6820,2540,167,41,1870,45
CC(C)(O)C#Cc1cc2c(-c3cn[nH]c3)cn(CC3COC3)c2cn1 [Compound 17],> 30000,11900,418,69,5860,88
